Here are results for 19 compounds from ChEMBL document CHEMBL1909046, “DrugMatrix in vitro pharmacology data”.

The target in assay [1] is Matrix metalloproteinase-9 (Homo sapiens, UniProt P14780). Type of assay: cell-based.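 Also: inhibition of isolated MMP-9 enzyme activity toward a synthetic peptide substrate, from the DrugMatrix protease screening panel.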
The target of assay [2] is 5-hydroxytryptamine receptor 6 (Homo sapiens, UniProt P50406). It is filed as cell membranes, HeLa, Membrane.
In a further assay the target is T1, Calcitonin receptor (Homo sapiens, UniProt P30988).
T1 sequence (P30988 whole entry): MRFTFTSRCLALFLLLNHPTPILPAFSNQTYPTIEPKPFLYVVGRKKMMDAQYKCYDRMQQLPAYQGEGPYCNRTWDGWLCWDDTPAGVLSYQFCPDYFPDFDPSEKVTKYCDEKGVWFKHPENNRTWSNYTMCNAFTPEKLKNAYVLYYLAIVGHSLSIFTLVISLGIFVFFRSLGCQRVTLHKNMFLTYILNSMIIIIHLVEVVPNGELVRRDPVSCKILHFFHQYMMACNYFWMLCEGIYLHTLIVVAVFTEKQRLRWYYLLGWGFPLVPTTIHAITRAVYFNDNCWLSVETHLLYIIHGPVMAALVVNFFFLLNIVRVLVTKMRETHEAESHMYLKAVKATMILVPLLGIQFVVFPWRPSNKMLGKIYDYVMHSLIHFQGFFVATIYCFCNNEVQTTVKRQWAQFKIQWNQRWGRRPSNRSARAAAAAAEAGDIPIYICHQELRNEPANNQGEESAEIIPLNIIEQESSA
It is filed as cell membranes, Membrane. Particulars: t47d.

The target in another assay is Nitric oxide synthase 1 (Rattus norvegicus, UniProt P29476). It is filed as tissue-based, Cerebellum.
Chain of Nitric oxide synthase 1 (P29476 whole entry): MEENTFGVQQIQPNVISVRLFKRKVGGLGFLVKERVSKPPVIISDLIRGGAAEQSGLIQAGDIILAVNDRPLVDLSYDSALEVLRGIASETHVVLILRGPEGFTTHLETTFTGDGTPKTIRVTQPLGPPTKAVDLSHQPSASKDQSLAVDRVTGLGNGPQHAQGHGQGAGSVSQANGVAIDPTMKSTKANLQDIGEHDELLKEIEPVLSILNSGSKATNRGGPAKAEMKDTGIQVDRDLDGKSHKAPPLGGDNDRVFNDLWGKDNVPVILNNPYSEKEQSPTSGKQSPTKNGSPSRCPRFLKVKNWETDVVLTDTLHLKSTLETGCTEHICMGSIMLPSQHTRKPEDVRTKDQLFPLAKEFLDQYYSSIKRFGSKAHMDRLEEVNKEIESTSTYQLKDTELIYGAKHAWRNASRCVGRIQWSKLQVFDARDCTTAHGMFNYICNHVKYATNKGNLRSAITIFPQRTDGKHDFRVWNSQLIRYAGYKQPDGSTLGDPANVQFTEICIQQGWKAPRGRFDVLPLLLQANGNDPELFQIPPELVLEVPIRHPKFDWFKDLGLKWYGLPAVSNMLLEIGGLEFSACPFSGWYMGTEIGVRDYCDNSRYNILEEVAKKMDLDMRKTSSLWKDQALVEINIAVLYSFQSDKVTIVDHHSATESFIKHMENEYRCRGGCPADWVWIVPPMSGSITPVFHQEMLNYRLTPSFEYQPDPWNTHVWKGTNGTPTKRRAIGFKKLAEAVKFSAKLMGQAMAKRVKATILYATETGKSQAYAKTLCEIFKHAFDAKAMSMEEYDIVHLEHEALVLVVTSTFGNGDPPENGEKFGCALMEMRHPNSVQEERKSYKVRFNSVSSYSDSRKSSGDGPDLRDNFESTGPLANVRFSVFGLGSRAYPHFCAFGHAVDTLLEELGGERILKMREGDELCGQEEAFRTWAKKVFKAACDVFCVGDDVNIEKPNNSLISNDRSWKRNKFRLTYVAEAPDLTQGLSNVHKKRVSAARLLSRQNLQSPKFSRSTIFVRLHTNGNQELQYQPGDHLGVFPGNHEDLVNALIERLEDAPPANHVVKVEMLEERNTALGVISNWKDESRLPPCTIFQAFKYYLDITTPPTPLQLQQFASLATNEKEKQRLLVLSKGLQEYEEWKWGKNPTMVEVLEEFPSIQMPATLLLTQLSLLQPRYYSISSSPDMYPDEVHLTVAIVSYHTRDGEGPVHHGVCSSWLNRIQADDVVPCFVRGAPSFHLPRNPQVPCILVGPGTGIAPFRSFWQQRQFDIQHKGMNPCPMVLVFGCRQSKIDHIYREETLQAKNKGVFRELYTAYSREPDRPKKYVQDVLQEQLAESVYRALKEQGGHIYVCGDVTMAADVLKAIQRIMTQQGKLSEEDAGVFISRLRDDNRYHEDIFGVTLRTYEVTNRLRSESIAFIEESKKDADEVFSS
Assay [3] deals with T2, Neuropeptide Y receptor type 1 (Homo sapiens, UniProt P25929).
T2 sequence (P25929 whole entry): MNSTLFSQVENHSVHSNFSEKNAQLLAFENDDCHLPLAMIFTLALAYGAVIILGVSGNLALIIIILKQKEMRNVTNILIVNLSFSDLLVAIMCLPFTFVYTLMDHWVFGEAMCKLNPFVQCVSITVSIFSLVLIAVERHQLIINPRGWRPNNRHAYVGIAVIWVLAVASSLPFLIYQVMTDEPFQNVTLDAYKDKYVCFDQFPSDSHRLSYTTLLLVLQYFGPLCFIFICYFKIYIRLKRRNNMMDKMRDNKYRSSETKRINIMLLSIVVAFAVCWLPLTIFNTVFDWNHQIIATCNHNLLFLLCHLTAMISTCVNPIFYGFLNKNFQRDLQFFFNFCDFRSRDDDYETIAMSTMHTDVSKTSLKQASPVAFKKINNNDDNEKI
It is filed as cell membranes, Membrane. Particulars: sk-n-mc.

The target of the next assay is Glycine receptor (Rattus norvegicus, UniProt P22771+P24524+P07727+P20781). It is filed as cell membranes, Wistar, Spinal cord, Membrane.
Another assay concerns the target T3, Endothelin-1 receptor (Homo sapiens, UniProt P25101).
T3 sequence (P25101 whole entry): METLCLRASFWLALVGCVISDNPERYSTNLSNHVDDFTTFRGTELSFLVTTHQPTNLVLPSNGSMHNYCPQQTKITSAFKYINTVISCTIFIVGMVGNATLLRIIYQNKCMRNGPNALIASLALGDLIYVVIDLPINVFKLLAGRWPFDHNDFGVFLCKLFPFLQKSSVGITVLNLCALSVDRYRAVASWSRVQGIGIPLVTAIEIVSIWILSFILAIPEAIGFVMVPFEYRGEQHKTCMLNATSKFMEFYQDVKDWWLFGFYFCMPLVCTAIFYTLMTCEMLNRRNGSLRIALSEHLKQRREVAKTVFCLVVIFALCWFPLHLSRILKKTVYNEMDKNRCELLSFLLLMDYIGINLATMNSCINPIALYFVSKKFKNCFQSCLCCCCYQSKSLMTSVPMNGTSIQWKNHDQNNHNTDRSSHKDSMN
Type of assay: cell membranes, Membrane. Particulars: cho-k1.

The target in a further assay is T4, Leukotriene C4 synthase (Cavia porcellus, UniProt A6XA80).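 Also: enzyme inhibition assay of leukotriene C4 synthase, using LTA4 as the substrate.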
T4 sequence (A6XA80 whole entry): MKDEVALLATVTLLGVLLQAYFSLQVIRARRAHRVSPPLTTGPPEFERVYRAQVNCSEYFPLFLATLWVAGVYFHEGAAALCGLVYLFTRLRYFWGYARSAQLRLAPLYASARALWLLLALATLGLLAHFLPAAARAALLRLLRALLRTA
Put plainly: biochemical. It is filed as tissue-based, Lung.
Also: in other assays of this panel Not Active means under 50% inhibition at 10 µM.

Chain of 5-hydroxytryptamine receptor 6 (P50406 whole entry): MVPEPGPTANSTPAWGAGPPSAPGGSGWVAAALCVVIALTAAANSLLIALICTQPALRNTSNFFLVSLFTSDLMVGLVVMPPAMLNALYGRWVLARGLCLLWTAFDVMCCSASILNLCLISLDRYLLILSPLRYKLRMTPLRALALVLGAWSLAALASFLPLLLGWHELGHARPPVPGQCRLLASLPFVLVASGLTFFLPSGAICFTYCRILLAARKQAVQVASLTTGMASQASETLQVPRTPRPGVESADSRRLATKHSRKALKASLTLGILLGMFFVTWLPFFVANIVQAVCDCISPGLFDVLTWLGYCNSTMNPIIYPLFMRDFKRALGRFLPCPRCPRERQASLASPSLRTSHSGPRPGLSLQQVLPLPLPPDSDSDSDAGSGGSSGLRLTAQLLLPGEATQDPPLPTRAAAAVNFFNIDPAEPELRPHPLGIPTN
Chain of Matrix metalloproteinase-9 (P14780 whole entry): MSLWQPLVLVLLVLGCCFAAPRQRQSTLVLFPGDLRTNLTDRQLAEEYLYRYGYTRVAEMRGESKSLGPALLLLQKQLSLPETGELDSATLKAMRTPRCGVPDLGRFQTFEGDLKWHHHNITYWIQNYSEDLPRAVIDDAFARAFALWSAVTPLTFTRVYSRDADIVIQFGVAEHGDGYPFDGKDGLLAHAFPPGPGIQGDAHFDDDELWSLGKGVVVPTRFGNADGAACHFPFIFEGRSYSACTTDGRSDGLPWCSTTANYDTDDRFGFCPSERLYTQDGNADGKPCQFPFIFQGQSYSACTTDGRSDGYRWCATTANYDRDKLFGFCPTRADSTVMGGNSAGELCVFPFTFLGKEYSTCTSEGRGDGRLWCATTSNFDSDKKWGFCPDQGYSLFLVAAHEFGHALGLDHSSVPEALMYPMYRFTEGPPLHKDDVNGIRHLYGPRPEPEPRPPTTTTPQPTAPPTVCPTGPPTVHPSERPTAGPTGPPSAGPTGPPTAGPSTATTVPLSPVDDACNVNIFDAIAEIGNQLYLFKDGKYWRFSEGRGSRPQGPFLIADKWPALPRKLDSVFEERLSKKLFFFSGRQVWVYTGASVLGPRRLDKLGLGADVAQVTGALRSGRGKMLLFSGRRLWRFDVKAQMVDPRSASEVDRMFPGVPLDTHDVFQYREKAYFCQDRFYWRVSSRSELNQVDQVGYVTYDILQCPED

`Cc1cnc(NC(=O)C2=C(O)c3ccccc3S(=O)(=O)N2C)s1` [MELOXICAM]: the IC50 entry (in assay [1]; in assay [2] (hela); on Calcitonin receptor; at Nitric oxide synthase 1; in assay [3]; against Glycine receptor) was “Not Active” in each case. For the same compound, the IC50 result on Endothelin-1 receptor and on Leukotriene C4 synthase was “Not Active” in each case.
With `Nc1nc(N)c2nc(-c3ccccc3)c(N)nc2n1`, the half-inhibitory concentration (IC50) entry (in assay [1]; in assay [2] (hela); at Calcitonin receptor; against Nitric oxide synthase 1; in assay [3]; on Glycine receptor) was “Not Active” each time. For the same compound, the half-inhibitory concentration (IC50) entry against Endothelin-1 receptor and at Leukotriene C4 synthase was “Not Active” throughout.
Turning to `CC(C)(C)NC[C@H](O)COc1cccc2c1CCCC2=O` [LEVOBUNOLOL], the IC50 result (in assay [1]; in assay [2] (hela); at Calcitonin receptor; against Nitric oxide synthase 1; in assay [3]; against Glycine receptor) was “Not Active” throughout. Also, the IC50 result against Endothelin-1 receptor and against Leukotriene C4 synthase was “Not Active” in each case.
Turning to `Cc1[nH]c(=O)c(C#N)cc1-c1ccncc1` [MILRINONE], the IC50 result (in assay [1]; in assay [2] (hela); on Calcitonin receptor; against Nitric oxide synthase 1; in assay [3]; on Glycine receptor) was “Not Active” throughout. The IC50 result on Endothelin-1 receptor and against Leukotriene C4 synthase was “Not Active” in each case.
For the compound `Cc1cn([C@H]2C=C[C@@H](CO)O2)c(=O)[nH]c1=O` [STAVUDINE], the IC50 entry (in assay [1]; in assay [2] (hela); at Calcitonin receptor; against Nitric oxide synthase 1; in assay [3]; on Glycine receptor) was “Not Active” throughout. In addition, the IC50 result against Endothelin-1 receptor and against Leukotriene C4 synthase was “Not Active” throughout.
Turning to `CCOc1cc(N)c(Cl)cc1C(=O)NCC1CN(Cc2ccc(F)cc2)CCO1` (stereo unspecified) [MOSAPRIDE], the IC50 entry (in assay [1]; in assay [2] (hela); at Calcitonin receptor; at Nitric oxide synthase 1; in assay [3]; against Glycine receptor) was “Not Active” in each case. For the same compound, the IC50 result against Endothelin-1 receptor and on Leukotriene C4 synthase was “Not Active” in each case.
Take `C#C[C@]1(O)CC[C@H]2[C@@H]3[C@H](C)CC4=C(CCC(=O)C4)[C@H]3CC[C@@]21C` [TIBOLONE]: the IC50 entry (in assay [1]; in assay [2] (hela); at Calcitonin receptor; at Nitric oxide synthase 1; in assay [3]; against Glycine receptor) was “Not Active” each time. In addition, the IC50 entry against Endothelin-1 receptor and against Leukotriene C4 synthase was “Not Active” each time.
As for `CC[C@H](C)[C@@H](CO[C@@H](Cc1ccccc1)C(=O)N[C@@H](CCS(C)(=O)=O)C(=O)OC(C)C)NC[C@@H](N)CS`, the IC50 entry (in assay [1]; in assay [2] (hela); on Calcitonin receptor; against Nitric oxide synthase 1; in assay [3]; against Glycine receptor) was “Not Active” each time. In addition, the IC50 entry against Endothelin-1 receptor and against Leukotriene C4 synthase was “Not Active” each time.
With `OC[C@@H](O)[C@@H](O)[C@H](O)[C@H](O)CO` [MANNITOL], the IC50 entry (in assay [1]; in assay [2] (hela); at Calcitonin receptor; on Nitric oxide synthase 1; in assay [3]; against Glycine receptor) was “Not Active” each time. The IC50 result on Endothelin-1 receptor and against Leukotriene C4 synthase was “Not Active” each time.
Take `O=[As][O-].[Na+]` [SODIUM ARSENITE]: the IC50 entry (in assay [1]; in assay [2] (hela); at Calcitonin receptor; against Nitric oxide synthase 1; in assay [3]; against Glycine receptor) was “Not Active” each time. For the same compound, the IC50 entry against Endothelin-1 receptor and against Leukotriene C4 synthase was “Not Active” throughout.
Take `Cc1cc2c(s1)Nc1ccccc1N=C2N1CCN(C)CC1` [OLANZAPINE]: the half-inhibitory concentration (IC50) entry (in assay [1]; on Calcitonin receptor; on Nitric oxide synthase 1; in assay [3]; against Glycine receptor; at Endothelin-1 receptor) was “Not Active” each time. Further, the IC50 entry at Leukotriene C4 synthase is on record as “Not Active”.
For `Cc1ccc(Cl)c(Nc2ccccc2C(=O)O)c1Cl` [MECLOFENAMIC ACID], the IC50 entry (in assay [1]; in assay [2] (hela); at Calcitonin receptor; at Nitric oxide synthase 1; in assay [3]; against Glycine receptor) was “Not Active” throughout. The IC50 result on Endothelin-1 receptor and against Leukotriene C4 synthase was “Not Active” each time.
With `CCOC(=O)C1=C(C)NC(C)=C(C(=O)OCC)C1c1ccccc1/C=C/C(=O)OC(C)(C)C` [LACIDIPINE], the IC50 result (in assay [1]; in assay [2] (hela); at Calcitonin receptor; at Nitric oxide synthase 1; in assay [3]; against Glycine receptor) was “Not Active” each time. The IC50 result against Endothelin-1 receptor and at Leukotriene C4 synthase was “Not Active” throughout.
As for `CNCCCC12CCC(c3ccccc31)c1ccccc12` [MAPROTILINE], the IC50 entry is “Not Active” in assay [1]; 892 nM in assay [2] (read-out: IC50); “Not Active” at Calcitonin receptor; “Not Active” against Nitric oxide synthase 1; “Not Active” in assay [3]; “Not Active” at Glycine receptor. Besides, the IC50 result at Endothelin-1 receptor and on Leukotriene C4 synthase was “Not Active” in each case. Further, in assay [2] (read-out: Ki), the inhibition constant (Ki) was 414 nM.
For the compound `O=C(c1ccccc1)c1ccc2n1CCC2C(=O)O` (stereo unspecified) [KETOROLAC], the IC50 entry (in assay [1]; in assay [2] (hela); at Calcitonin receptor; on Nitric oxide synthase 1; in assay [3]; on Glycine receptor) was “Not Active” in each case. The IC50 entry against Endothelin-1 receptor and against Leukotriene C4 synthase was “Not Active” each time.
Regarding `CCN(CC)N=O` [N-NITROSODIETHYLAMINE], the IC50 result (in assay [1]; in assay [2] (hela); at Calcitonin receptor; against Nitric oxide synthase 1; in assay [3]; against Glycine receptor) was “Not Active” each time. Besides, the IC50 entry against Endothelin-1 receptor and at Leukotriene C4 synthase was “Not Active” throughout.
For the compound `CO[C@@]12[C@H](COC(N)=O)C3=C(C(=O)C(C)=C(N)C3=O)N1C[C@@H]1N[C@@H]12` [MITOMYCIN], the IC50 result (in assay [1]; in assay [2] (hela); on Calcitonin receptor; against Nitric oxide synthase 1; in assay [3]; against Glycine receptor) was “Not Active” throughout. The half-maximal inhibitory concentration (IC50) entry against Endothelin-1 receptor and on Leukotriene C4 synthase was “Not Active” throughout.
On to `Cc1ccc(S(=O)(=O)NC(=O)NN2CCCCCC2)cc1` [TOLAZAMIDE], for which the IC50 entry (in assay [1]; in assay [2] (hela); at Calcitonin receptor; at Nitric oxide synthase 1; in assay [3]; against Glycine receptor) was “Not Active” throughout. Also, the IC50 entry against Endothelin-1 receptor and against Leukotriene C4 synthase was “Not Active” in each case.
For `CN(C)CCC=C1c2ccccc2COc2ccccc21` [DOXEPIN], the half-maximal inhibitory concentration (IC50) result (in assay [1]; at Calcitonin receptor; at Nitric oxide synthase 1; in assay [3]; against Glycine receptor; on Endothelin-1 receptor) was “Not Active” in each case. The IC50 result against Leukotriene C4 synthase is listed as “Not Active”.
